Results: US6365594B1, “Heterocycle-condensed morphinoid derivatives (II)” (SmithKline Beecham S.p.A., priority 1996, dated 2002)
Counter-ions that a name gives are not always drawn.

Legend:
[1] = molecular target: T1, delta receptor (Mus musculus, UniProt P32300); experiment: cAMP bioassay in NG108-15 cells (inhibition of forskolin-stimulated cAMP); assay type: cell-based
T1 construct: endogenous in cells; host or cells: NG108-15 cells
Procedure: The delta agonistlantagonist activity of the compounds of the present invention is determined in the cAMP bioassay in NG108-15 cell lines as described below.
NG 108-15 cell were grown at 37° C. in humidified atmosphere of 5% CO2 and 95% air in DMEM (without sodium pyruvate using 4500 mg/l glucose) supplemented with 10% foetal calf serum containing 2 mM glutamine, 2% HAT×50 supplement, 50 μg streptomycin and 50 I.U. penicillin per ml confluent cells were harvested with […] in Ca/Mg-free phosphate-buffered saline with mechanical stiring. Medium was replaced every 2 day. One day before the experiment the cells were dispensed in 17 mm culture plate (about 10×10^6 cells/plate). After 1 day, the growth medium was removed and cells washed twice with a modified Krebs-Ringer medium buffered with hepes-NaOH 200 mM, pH 7.4, that contained (mmol/l): NaCl (125), KCl (5), KH2PO4 (0.4), MgSO4 and CaCl2 (1.2) NaHCO3 (25), glucose (12). Incubation medium was also including 1 mM 3-isobuthyl-1-methylxantine (IBMX). Experiments were performed at room temperature. After incubation for 10 minutes to allow IBMX incorporation, NG108-15 cells were exposed to 1 μM forskolin and the compound to be tested, for 10 minutes. […] The pellets from the original plates were dissolved in NaOH 0.5N and the protein content was determined with the method described by Bradfort (Anal. Biochem. 1976, 72, 248). […]

[2] = molecular target: T2, mu opioid receptor (Mus musculus, UniProt P42866); experiment: radioligand binding, mu ligand [3H]-DAMGO, mouse brain membranes; settings: selectivity ratio
T2 construct: Mouse brain membranes were prepared as described by Kosterlitz; from tissue; host or cells: mouse brain membranes
Procedure: (§1) The activity of the compounds of the present invention as selective delta ligands is determined in radioligand binding assays as described below.
(§2) Mouse brain membranes were prepared as described by Kosterlitz (Br. J. Pharmacol., 1981, 73, 939.). The binding of the preferential delta ligand [^3H]-[D-Ala^2,D-Leu^5]-enkephalin (DADLE) was evaluated at its KD concentration (1.3 nM) in presence of 40 nM of the unlabelled mu ligand [D-Ala^2, MePhe^4, Gly-ol^5]-enkephalin (DAMGO). The binding of the mu ligand [^3H]-DAMGO (Eur. J. Pharmacol., 1989, 166, 213) and of the kappa ligand [^3H]-U69593 (Excerpta Medica, 1990, 211) were carried out at 0.5 nM. The non-specific binding was determined in presence of naloxone (10 μM) for all tritiated ligands. Binding data were expressed as percentage of inhibition and fitted the following equation: f(x)=100·X/(IC50+X) where X are cold drug concentration values. The IC50 obtained were used to calculate the inhibitory constants (Ki) accordingly to the Cheng and Prusoff relation (Biochem. Pharmacol., 1973, 22, 3099).

[3] = molecular target: T3, kappa opioid receptor (Mus musculus, UniProt P33534); experiment: radioligand binding, kappa ligand [3H]-U69593, mouse brain membranes; settings: selectivity ratio
T3 construct: Mouse brain membranes were prepared as described by Kosterlitz; from tissue; host or cells: mouse brain membranes
Procedure: as §1, §2

T1 sequence (P32300 whole entry): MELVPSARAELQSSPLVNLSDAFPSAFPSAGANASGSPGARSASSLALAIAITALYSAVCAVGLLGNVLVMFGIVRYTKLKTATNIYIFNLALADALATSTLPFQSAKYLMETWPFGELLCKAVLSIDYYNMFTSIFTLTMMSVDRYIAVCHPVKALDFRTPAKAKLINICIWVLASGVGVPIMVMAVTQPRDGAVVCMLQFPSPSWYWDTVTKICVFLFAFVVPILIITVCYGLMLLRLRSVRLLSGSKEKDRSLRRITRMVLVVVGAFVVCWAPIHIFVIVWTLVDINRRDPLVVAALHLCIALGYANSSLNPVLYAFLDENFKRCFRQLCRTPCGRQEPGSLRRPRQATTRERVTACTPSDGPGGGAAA
T2 sequence (P42866 whole entry): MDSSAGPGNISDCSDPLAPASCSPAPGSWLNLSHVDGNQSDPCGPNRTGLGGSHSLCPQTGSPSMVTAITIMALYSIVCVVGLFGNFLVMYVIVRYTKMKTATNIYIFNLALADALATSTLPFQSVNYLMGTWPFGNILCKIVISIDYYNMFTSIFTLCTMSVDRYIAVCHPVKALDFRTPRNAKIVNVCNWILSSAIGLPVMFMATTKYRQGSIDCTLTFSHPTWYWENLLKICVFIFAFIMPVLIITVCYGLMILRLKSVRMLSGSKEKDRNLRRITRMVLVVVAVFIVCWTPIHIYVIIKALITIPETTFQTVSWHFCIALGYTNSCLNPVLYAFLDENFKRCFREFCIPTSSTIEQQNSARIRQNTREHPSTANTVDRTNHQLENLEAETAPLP
T3 sequence (P33534 whole entry): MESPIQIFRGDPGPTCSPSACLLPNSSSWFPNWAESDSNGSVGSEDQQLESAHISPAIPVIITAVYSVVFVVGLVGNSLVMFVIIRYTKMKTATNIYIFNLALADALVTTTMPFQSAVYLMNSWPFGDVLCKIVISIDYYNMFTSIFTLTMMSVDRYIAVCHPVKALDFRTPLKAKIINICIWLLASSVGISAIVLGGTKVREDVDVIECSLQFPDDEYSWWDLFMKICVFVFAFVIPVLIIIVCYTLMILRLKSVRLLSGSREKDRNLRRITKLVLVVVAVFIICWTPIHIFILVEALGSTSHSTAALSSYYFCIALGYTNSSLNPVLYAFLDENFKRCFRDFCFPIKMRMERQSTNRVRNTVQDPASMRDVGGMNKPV

Row | Structure (SMILES) | IC50 [1] | antagonism of the agonist activity by the selective delta antagonist naltrindole ([1]; NG108-15 cells, naltrindole 100 nM) | Ki mu/Ki delta [2] | Ki kappa/Ki delta [3] | melting point
1 | COc1ccc2c3c1O[C@H]1c4[nH]c(C(=O)N(Cc5ccccc5)C(C)C)c(C)c4C[C@H]4[C@@H](C2)N(C)CC[C@]314 [Example 1, [R-(4bS*,8α,s8aβp,12βp)]11(N-N-benzylN-isopropylaminocarbonyl)-7,10dimethyl-1-methoxy-5,6,7,8,12,12b-hexahydro-(9H){4,8methanobenzofuro[3,2]pyrrolo[2,3-g]soquinoline hydrochloride] | 15 nM | completely antagonised | – | – | –
2 | CCOC(=O)c1[nH]c2c(c1C(F)(F)F)C[C@H]1[C@H]3Cc4ccc(OC)c5c4[C@@]1(CCN3C)[C@H]2O5 [Example 10] | – | – | 840 | 600 | 174 °C
